In ChEMBL document CHEMBL1201862, “PubChem BioAssay data set” (2004):
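A five-concentration, 48-hour dose response in 96-well plates underlies each endpoint, interpolated linearly between surrounding concentrations. GI50: concentration for 50% inhibition of growth.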 Active and inactive are the calls of the source. No stated cut-off is given here; in the data, active = GI50 up to about 1.1 µM and inactive = higher.

Tests used:
Assay in all cases: NCI anticancer screen, dose series, 48 h
CCRF-CEM = tested on: CCRF-CEM
COLO 205 = tested on: COLO 205
HCC 2998 = tested on: HCC 2998
HL-60 = tested on: HL-60
IGROV-1 = tested on: IGROV-1
K562 = tested on: K562
OVCAR-3 = tested on: OVCAR-3
RPMI-8226 = tested on: RPMI-8226
SF-268 = tested on: SF-268
SK-OV-3 = tested on: SK-OV-3
SNB-19 = tested on: SNB-19
SW-620 = tested on: SW-620
U-251 = tested on: U-251
UACC-257 = tested on: UACC-257
KM12 = tested on: KM12
NCI-H23 = tested on: NCI-H23
RXF 393 = tested on: RXF 393
DLD-1 = tested on: DLD-1
DMS-273 = tested on: DMS-273
KM-20L2 = tested on: KM-20L2

Measured: GI50

CC(NC(C#N)CC12CC3CC(CC(C3)C1)C2)c1ccccc1 (stereo not given)
inactive: CCRF-CEM 20.7 µM | COLO 205 38.1 µM | HCC 2998 > 100 µM | HL-60 18.5 µM | IGROV-1 32.4 µM | K562 23.1 µM | OVCAR-3 13.6 µM | RPMI-8226 15.5 µM | SF-268 47.4 µM | SK-OV-3 59.6 µM | SNB-19 > 100 µM | SW-620 54.8 µM | U-251 42.2 µM | UACC-257 > 100 µM

C=CCn1c(=O)c(C)cn(COCCO)c1=O
inactive: CCRF-CEM > 100 µM | COLO 205 > 100 µM | HCC 2998 > 100 µM | IGROV-1 > 100 µM | K562 > 100 µM | KM12 > 100 µM | NCI-H23 > 100 µM | OVCAR-3 > 100 µM | RPMI-8226 > 100 µM | RXF 393 > 100 µM | SF-268 > 100 µM | SNB-19 > 100 µM | SW-620 > 100 µM | U-251 > 100 µM | UACC-257 > 100 µM

CCOC(=O)Oc1ccc(C(CNC(C)C)OC(=O)OCC)cc1OC(=O)OCC (stereo not given)
inactive: CCRF-CEM 48.1 µM | COLO 205 > 100 µM | HCC 2998 > 100 µM | HL-60 25.4 µM | IGROV-1 > 100 µM | K562 > 100 µM | KM12 > 100 µM | NCI-H23 > 100 µM | OVCAR-3 > 100 µM | RPMI-8226 > 100 µM | RXF 393 11.5 µM | SF-268 > 100 µM | SK-OV-3 > 100 µM | SNB-19 > 100 µM | SW-620 > 100 µM | U-251 > 100 µM | UACC-257 > 100 µM

CN(C)c1ccc(N2C(=S)SC(=N\c3ccccc3)/C2=N/c2ccccc2)cc1
inactive: CCRF-CEM > 100 µM | COLO 205 > 100 µM | HCC 2998 > 100 µM | HL-60 > 100 µM | IGROV-1 > 100 µM | K562 > 100 µM | KM12 > 100 µM | NCI-H23 > 100 µM | OVCAR-3 > 100 µM | RPMI-8226 > 100 µM | RXF 393 3.43 µM | SK-OV-3 > 100 µM | SNB-19 > 100 µM | U-251 > 100 µM

COC(=O)C1=C(OC(=O)/C=C/c2ccc(Cl)cc2)C(C(=O)OC)[C@@]2(O)[C@@H](C(=O)OC)[C@H](C)C[C@@H]1[C@@H]2C(=O)OC (stereo not given in full)
inactive: CCRF-CEM 13.2 µM | COLO 205 17.1 µM | HL-60 13.6 µM | IGROV-1 3.94 µM | K562 21.6 µM | KM12 34.1 µM | NCI-H23 19.5 µM | OVCAR-3 30.8 µM | RXF 393 27.2 µM | SF-268 16.7 µM | SK-OV-3 24.6 µM | SNB-19 30.8 µM | SW-620 28.4 µM | U-251 28.4 µM | UACC-257 45.1 µM

COc1ccc2c(c1)c1cc(OC)ccc1n2CCCCOc1ccc(-c2c3ccccc3c(-c3ccc(OCCCCn4c5ccc(OC)cc5c5cc(OC)ccc54)cc3)c3ccccc23)cc1
inactive: CCRF-CEM > 100 µM | COLO 205 > 100 µM | DLD-1 > 100 µM | DMS-273 > 100 µM | HCC 2998 > 100 µM | IGROV-1 > 100 µM | K562 > 100 µM | KM-20L2 > 100 µM | KM12 > 100 µM | OVCAR-3 > 100 µM | SF-268 > 100 µM | SK-OV-3 > 100 µM | SNB-19 > 100 µM | SW-620 > 100 µM

C[S+](C)([O-])=Nn1c(=O)n2n(c1=O)[C@H]1CC[C@@H]2C1
inactive: CCRF-CEM > 100 µM | COLO 205 > 100 µM | HL-60 46.3 µM | IGROV-1 > 100 µM | K562 > 100 µM | KM12 > 100 µM | NCI-H23 > 100 µM | OVCAR-3 > 100 µM | RPMI-8226 > 100 µM | RXF 393 > 100 µM | SF-268 > 100 µM | SK-OV-3 > 100 µM | SNB-19 > 100 µM | SW-620 > 100 µM | U-251 > 100 µM | UACC-257 > 100 µM
